Source: ChEMBL document CHEMBL2331100, “Inhibition pattern of sulfamide-related compounds in binding to carbonic anhydrase isoforms I, II, VII, XII and XIV” (Bioorg Med Chem, 2013)

How the values were obtained:
Carbonic anhydrase 14 = Carbonic anhydrase 14 (Homo sapiens, UniProt Q9ULX7); assay: Inhibition of human carbonic anhydrase 14 preincubated for 15 mins by CO2 hydration stopped-flow assay
Carbonic anhydrase 7 = Carbonic anhydrase 7 (Homo sapiens, UniProt P43166); assay: Inhibition of human carbonic anhydrase 7 preincubated for 15 mins by CO2 hydration stopped-flow assay
Carbonic anhydrase 1 = Carbonic anhydrase 1 (Homo sapiens, UniProt P00915); assay: Inhibition of human carbonic anhydrase 1 preincubated for 15 mins by CO2 hydration stopped-flow assay
Carbonic anhydrase 12 = Carbonic anhydrase 12 (Homo sapiens, UniProt O43570); assay: Inhibition of human carbonic anhydrase 12 preincubated for 15 mins by CO2 hydration stopped-flow assay
Carbonic anhydrase 2 = Carbonic anhydrase 2 (Homo sapiens, UniProt P00918); assay: Inhibition of human carbonic anhydrase 2 preincubated for 15 mins by CO2 hydration stopped-flow assay

Sequence of Carbonic anhydrase 12 (O43570 whole entry): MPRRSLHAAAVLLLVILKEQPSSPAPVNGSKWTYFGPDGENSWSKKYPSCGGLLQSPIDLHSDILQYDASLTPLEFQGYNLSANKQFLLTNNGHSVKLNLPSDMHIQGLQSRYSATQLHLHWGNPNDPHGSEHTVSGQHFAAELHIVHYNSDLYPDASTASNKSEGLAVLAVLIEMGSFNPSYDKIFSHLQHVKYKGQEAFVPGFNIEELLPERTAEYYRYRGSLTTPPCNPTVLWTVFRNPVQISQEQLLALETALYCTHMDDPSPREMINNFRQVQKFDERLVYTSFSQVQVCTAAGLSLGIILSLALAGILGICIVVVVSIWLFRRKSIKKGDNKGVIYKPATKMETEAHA
Sequence of Carbonic anhydrase 1 (P00915 whole entry): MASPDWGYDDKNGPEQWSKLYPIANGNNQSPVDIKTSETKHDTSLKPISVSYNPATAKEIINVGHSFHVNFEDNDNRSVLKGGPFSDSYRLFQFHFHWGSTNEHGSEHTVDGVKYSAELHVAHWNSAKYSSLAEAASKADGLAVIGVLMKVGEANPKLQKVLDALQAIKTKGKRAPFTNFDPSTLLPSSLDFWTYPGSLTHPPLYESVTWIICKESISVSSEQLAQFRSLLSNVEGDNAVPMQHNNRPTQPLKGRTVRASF
Sequence of Carbonic anhydrase 14 (Q9ULX7 whole entry): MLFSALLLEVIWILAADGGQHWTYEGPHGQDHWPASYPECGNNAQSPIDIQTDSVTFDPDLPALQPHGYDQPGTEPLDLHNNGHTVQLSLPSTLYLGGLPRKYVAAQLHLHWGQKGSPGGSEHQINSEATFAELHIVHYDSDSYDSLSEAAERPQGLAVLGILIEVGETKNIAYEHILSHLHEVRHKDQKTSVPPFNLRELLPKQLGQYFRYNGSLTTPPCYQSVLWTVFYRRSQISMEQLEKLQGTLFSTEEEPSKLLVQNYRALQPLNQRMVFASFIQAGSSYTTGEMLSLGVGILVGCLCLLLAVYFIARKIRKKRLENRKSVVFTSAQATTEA
Sequence of Carbonic anhydrase 7 (P43166 whole entry): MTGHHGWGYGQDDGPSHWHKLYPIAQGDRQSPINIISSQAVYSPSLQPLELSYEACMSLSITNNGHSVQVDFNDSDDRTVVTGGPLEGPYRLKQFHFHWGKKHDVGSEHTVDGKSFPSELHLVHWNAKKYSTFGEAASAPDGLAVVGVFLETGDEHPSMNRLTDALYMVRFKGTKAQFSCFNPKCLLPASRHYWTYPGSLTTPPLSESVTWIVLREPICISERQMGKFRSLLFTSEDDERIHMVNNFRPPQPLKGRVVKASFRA

| SMILES | Ki (Carbonic anhydrase 14) [µM] | Ki (Carbonic anhydrase 7) [µM] | Ki (Carbonic anhydrase 1) [µM] | Ki (Carbonic anhydrase 12) [µM] | Ki (Carbonic anhydrase 2) [µM] |
| --- | --- | --- | --- | --- | --- |
| NS(=O)(=O)NCc1ccccc1 | 0.84 | 0.3 | 0.13 | 0.94 | 0.12 |
| CCCCN(CCCC)S(=O)(=O)N(CCCC)CCCC | > 200 | > 200 | > 200 | > 200 | > 200 |
| O=S(=O)(N1CCOCC1)N1CCOCC1 | 48.8 | 0.47 | > 200 | 9.1 | 135 |
| COC(=O)[C@@H](NS(=O)(=O)N[C@H](C(=O)OC)C(C)C)C(C)C |  | > 200 | > 200 | 73 | > 200 |
| CCCCCCOS(N)(=O)=O [HEXYL SULFAMATE] | 0.82 | 0.7 | 3.66 | 0.73 | 2.82 |
| CCCC(CCC)COS(N)(=O)=O |  | 4.3 | 2.98 | 0.89 | 1.92 |
| CCCN(CCC)S(N)(=O)=O | 7.1 | > 200 | 24.9 | 3.53 | 60.3 |
| CCCC(CCC)CN(C(=O)OC(C)(C)C)S(=O)(=O)NCCC(=O)OC | 8.09 | > 200 | 62.2 | 65.4 | 41.1 |
| CCCN(CCC)S(=O)(=O)NC(=O)OC(C)(C)C |  | 0.32 | 6.88 | 0.91 | > 200 |
| COC(=O)[C@H](C)NS(=O)(=O)N[C@@H](C)C(=O)OC | 7.66 | > 200 | > 200 | > 200 | > 200 |
| O=S(=O)(NC1CC1)NC1CC1 | 8.79 | 0.16 | > 200 | 0.77 | > 200 |
| COC(=O)[C@H](C)NS(=O)(=O)NC(=O)OC(C)(C)C | 5.38 | > 200 | > 200 | 54.5 | > 200 |
| COC(=O)CCNS(=O)(=O)NCCC(=O)OC |  | > 200 | > 200 | 70.8 | > 200 |
| COC(=O)CNS(=O)(=O)NC(=O)OC(C)(C)C | 5.92 | > 200 | > 200 | 56.3 | 55.7 |
| CC(C)(C)OC(=O)NS(=O)(=O)NCc1ccccc1 | 40.4 | 0.17 | 8.84 | 0.89 | 161 |
| COC(=O)CCNS(=O)(=O)Oc1ccccc1O | 8.53 | 68.7 | 88.7 | 65 | > 200 |
| CCCNS(=O)(=O)NCCC | > 200 | > 200 | 4.69 | > 200 | 124 |
| O=S(=O)(NCc1ccccc1)NCc1ccccc1 [BENZYL(BENZYLSULFAMOYL)AMINE] |  | 0.38 | > 200 | 81.5 | 0.65 |
| O=S(=O)(NCCc1ccccc1)NCCc1ccccc1 | > 200 | > 200 | > 200 | > 200 | > 200 |
| O=S(=O)(NC1CCCCC1)NC1CCCCC1 | 9.94 | 0.32 | 6.64 | 0.7 | 100 |
| CCCN(CCC)S(=O)(=O)N(CCC)CCC |  | > 200 | 9.35 | > 200 | > 200 |
| CCCCNS(=O)(=O)NCCC(=O)OC | 8.37 | > 200 | > 200 | 61.2 | > 200 |
| CCCCNS(=O)(=O)NCCCC [BUTYL(BUTYLSULFAMOYL)AMINE] | 9.79 | 0.41 | 6.64 | 0.69 | 66.3 |
